Legend:
Assay type in all cases: cell-based
[1] = test system: c-jun mRNA; assay: c-jun mRNA levels in PDGF-stimulated rat aortic smooth muscle cells; conditions: 200 nM for 4 hours; 2 and 6 hours after exposure to PDGF (10 ng/ml); versus untreated or ISIS 12898-treated cells
Method: (§1) In order to evaluate the effect of AP-1 modulation on cell cycle progression, the following study was performed. Cultured rat aortic smooth muscle (RASM) cells are stimulated to proliferate upon contact with platelet-derived growth factor (PDGF). Primary RASM cells (passages 6-8) were synchronized by incubation for 48 hours in DMEM containing 0.1% FBS. The cells were treated for 4 hours with 200 nM ISIS 12633 (SEQ ID NO:78), a 20-mer phosphorothioate oligonucleotide complementary to a portion of the 3′ UTR of rat c-jun mRNA, or ISIS 12898 (SEQ ID NO:92), a scrambled control of ISIS 12633. Cells were then contacted with PDGF (10 ng/ml) (R&D Systems, Minneapolis, Minn.), and cell cycle progression was assessed by FACS analysis 24 hours later. At 2 and 6 hours after exposure to PDGF, c-jun mRNA levels were markedly less in ISIS 12633-treated cells as compared to untreated cells or cells treated with ISIS 12898.

[2] = test system: rat aortic smooth muscle (RASM) cells; assay: Cell cycle progression of PDGF-stimulated rat aortic smooth muscle cells, FACS analysis; conditions: 200 nM; 24 hours after PDGF
Method: as §1

[3] = test system: rat c-jun mRNA; assay: Rat c-jun mRNA expression in rat A10 cells
Method: Tables 13 and 14 show the sequences of oligonucleotides designed to modulate rat c-jun and c-fos mRNA expression, respectively. For the nucleotide sequence of the rat c-jun gene, see Genbank accession No. X17163/RSJUNAP1 and Saaki et al., Cancer Res., 1989, 49:5633. The nucleotide sequence of the rat c-fos gene is described in Genbank accession No. X06769/RNCFOSR and Curran et al., Oncogene, 1987, 2:79. Oligonucleotide activities were evaluated as described infra in Example 2 et seq. with the exception that rat A10 cells (available from, inter alia, the American Type Culture Collection, Rockville, Md., as ATCC No. CRL-1476) were used instead of human A549 cells. Due to the high degree of homology between human and rat c-jun and c-fos nucleotide sequences, probes derived from the human genes were used to detect the rat messages.
Another preferred oligonucleotide targeted to rat AP-1 subunits is ISIS 12635 (SEQ ID NO:80).

Substance: TTT-TCT-TCC-ACT-GCC-CCT-CA (TTTTCTTCCACTGCCCCTCA; DNA, all phosphorothioate, methylation of C not given here) [ISIS 12633]
- c-jun mRNA levels (in words) [1]: markedly less
- proportion of cells in the G2/M interface (in words) [2]: significant decrease
- modulation of rat c-jun (in words) [3]: active modulator
